Literature values as cited in publication PMC6247902 (Cancer immunology research, 2018).

Tested on: serum albumin
Details: read-out: affinity for serum albumin, KD

Cc1c(C)c2c(c(C)c1O)CC[C@@](C)(CCC[C@H](C)CCC[C@H](C)CCCC(C)C)O2 [α-tocopherol]
Kd: ~7 µM
